Test results as given in patent publication EP1566447A1, “Glimepiride- and insulin-induced glycosylphosphatidylinositol-specific phospholipase C regulation” (priority 2004, dated 2005).

Columns and labels:
[1] = test system: GPI-PLC of hcDIGs from rat adipocytes; assay: adipocyte GPI-PLC assay (cleavage of AChE, TX-114 partitioning); format: biochemical; conditions: 1 mM; hcDIGs from rat adipocytes
Method: Biophys. […] Each reaction mixture was subjected to TX-114 partitioning (see below).
After incubation for 1 h on ice, the mixture was layered onto a cushion of 0.4 ml of 0.25 M sucrose and 25 mM Tris/HCl (pH 7.4) on ice.
Cleavage rate was calculated from the amount of hydrophilic AChE and aP activity recovered with the TX-114-depleted phase upon TX-114 partitioning.

rat adipocytes = assay: isoproterenol-induced lipolysis measured as release of NBD-FA; format: cell-based; conditions: 50 µM; Fig. 9 Panels A, B
Method: Electroporation was performed as described in "Müller, G. et al., (2000) Mol. Cell. Biol. 20: 4708-4723". Lipolysis was determined as release of glycerol or fluorescent NBD-FA from prelabeled and isoproterenol-stimulated adipocytes as described in "Müller, G. et al., (2003) Biochimie 85: 1245-1256". Gce1 was detected by photolabeling of solubilized plasma membranes or hc/IcDIGs (10-50 µg protein) with 8-N3-[^32P]cAMP and subsequent phosphorimaging as described in "Müller, G. et al., (1994) Biochemistry 33: 12149-12159". 5'-Nuc, aP and AChE activities were measured according to "Eliakim, R. et al., (1990) Biochim. Biophys. Acta […]". Protein was determined using the BCA protein determination kit from Pierce (Rockford, IL) and BSA as calibration standard. SDS-PAGE was performed using precast gels (Novex, San Diego, CA; 10 % Bis-Tris resolving gel, morpholinopropanesulfonic acid-SDS running buffer). Lumiimages were evaluated on a Lumilmager using Lumilmager software (Roche Diagnostics). Phosphor- and fluorescence images were processed and quantified using the Storm 860 Phosphorlmager system (Molecular Dynamics, Gelsenkirchen, Germany). Figures were constructed using the Adobe Photoshop software (Adobe Systems, Mountain View, CA). […]

[2] = test system: patients with type 2 diabetes; conditions: cited from earlier work

Compound	inhibition % at 1 mM [1] [%]	effect on the glimepiride-induced reduction of NBD-FA release (rat adipocytes)	activation of GPI-PLC (GPI-PLC; direct incubation of hcDIGs from untreated adipocytes, Fig. 4 Panel A)	stimulation of GPI-PLC activity (GPI-PLC; hcDIGs prepared from pretreated adipocytes, Fig. 4 Panel C, 20 µM) [fold]	hypoglycaemia occurred in patients ([2]; monotherapy, treated for ≤1 year) [%]	effective dosage range ([2]; patients with type 2 diabetes) [mg/day]
CCCCCCCCCCCCP(=O)(OC)O[C@@H]1[C@H](O)[C@H](O)[C@@H](O)[C@H](O)[C@H]1O (stereo partly drawn) [GPI-2349, myo-inositol-1-O-dodecylphosphonic acid methylester]	27 ± 6	–	–	–	–	–
CCC1=C(C)CN(C(=O)NCCc2ccc(S(=O)(=O)NC(=O)N[C@H]3CC[C@H](C)CC3)cc2)C1=O [Glimepiride, glimepiride]	–	completely abrogated	up to 4 fold	3	10 to 20	0.5 to 8
